{
  "source": "paper PMC5218480",
  "about": "(PLoS ONE, 2017)",
  "test_system": "MV-4-11 cells",
  "test": "Gene expression microarray analysis (Affymetrix PrimeView) and GSEA",
  "format": "cell-based, human",
  "parameters": "RFU PODN (11730768_x_at) / Fold change /veh PODN (11730768_x_at) / RFU LINC00158 (11744669_a_at) / Fold change /veh LINC00158 (11744669_a_at) / RFU DUSP10 (11751237_a_at) / Fold change /veh DUSP10 (11751237_a_at) / RFU ID3 (11757404_x_at) / Fold change /veh ID3 (11757404_x_at) / RFU PLEKHG5 (11737974_s_at) / Fold change /veh PLEKHG5 (11737974_s_at) / RFU LRRC4B (11730491_at) / Fold change /veh LRRC4B (11730491_at) / RFU GIMAP4 (11747438_a_at) / Fold change /veh GIMAP4 (11747438_a_at) / RFU KRT8 (11758183_x_at) / Fold change /veh KRT8 (11758183_x_at) / RFU CNN1 (11734310_a_at) / Fold change /veh CNN1 (11734310_a_at) / RFU VPS37D (11726825_at) / Fold change /veh VPS37D (11726825_at) / RFU C10orf10 (11716522_x_at) / Fold change /veh C10orf10 (11716522_x_at) / RFU KIR2DL2 /// KIR2DL4 /// KIR2DL5A /// KIR2DL5B /// KIR2DS1 /// KIR2DS2 /// KIR2DS3 /// KIR2DS4 /// KIR3DL3 /// KIR3DL3 /// KIR3DS1 (11738374_at) / Fold change /veh KIR2DL2 /// KIR2DL4 /// KIR2DL5A /// KIR2DL5B /// KIR2DS1 /// KIR2DS2 /// KIR2DS3 /// KIR2DS4 /// KIR3DL3 /// KIR3DL3 /// KIR3DS1 (11738374_at) / RFU C1QL1 (11718748_at) / Fold change /veh C1QL1 (11718748_at) / RFU TMPRSS4 (11747572_a_at) / Fold change /veh TMPRSS4 (11747572_a_at) / RFU HAMP (11756126_x_at) / Fold change /veh HAMP (11756126_x_at) / RFU RNFT2 (11725882_a_at) / Fold change /veh RNFT2 (11725882_a_at) / RFU NR4A2 (11747474_a_at) / Fold change /veh NR4A2 (11747474_a_at) / RFU ABCC12 (11746883_a_at) / Fold change /veh ABCC12 (11746883_a_at) / RFU TMEM136 (11760407_x_at) / Fold change /veh TMEM136 (11760407_x_at) / RFU CLDN22 /// WWC2 (11732394_at) / Fold change /veh CLDN22 /// WWC2 (11732394_at) / RFU HLA-DPB1 (11760878_x_at) / Fold change /veh HLA-DPB1 (11760878_x_at) / RFU SPINT1 (11716480_a_at) / Fold change /veh SPINT1 (11716480_a_at) / RFU GAP43 (11754022_s_at) / Fold change /veh GAP43 (11754022_s_at) / RFU A4GNT (11735810_at) / Fold change /veh A4GNT (11735810_at) / RFU PRB3 (11715151_x_at) / Fold change /veh PRB3 (11715151_x_at) / RFU TUBB4B (11761932_at) / Fold change /veh TUBB4B (11761932_at) / RFU CAPN14 (11732068_a_at) / Fold change /veh CAPN14 (11732068_a_at) / RFU TMCC2 (11721928_a_at) / Fold change /veh TMCC2 (11721928_a_at) / RFU IRGQ (11745062_a_at) / Fold change /veh IRGQ (11745062_a_at) / RFU FAM174B (11720279_a_at) / Fold change /veh FAM174B (11720279_a_at) / RFU TMPRSS4 (11748680_a_at) / Fold change /veh TMPRSS4 (11748680_a_at) / RFU FAM212B (11763350_a_at) / Fold change /veh FAM212B (11763350_a_at) / RFU PLEKHG5 (11743358_a_at) / Fold change /veh PLEKHG5 (11743358_a_at) / RFU ZSCAN30 (11745921_a_at) / Fold change /veh ZSCAN30 (11745921_a_at) / RFU CMKLR1 (11741424_a_at) / Fold change /veh CMKLR1 (11741424_a_at) / RFU LOC101060620 /// MAPK8IP1 (11723275_at) / Fold change /veh LOC101060620 /// MAPK8IP1 (11723275_at) / RFU SPTSSB (11747773_x_at) / Fold change /veh SPTSSB (11747773_x_at) / RFU PRSS12 (11739890_at) / Fold change /veh PRSS12 (11739890_at) / RFU BIN1 (11741810_x_at) / Fold change /veh BIN1 (11741810_x_at) / RFU WNT11 (11732464_a_at) / Fold change /veh WNT11 (11732464_a_at) / RFU C10orf10 (11716521_a_at) / Fold change /veh C10orf10 (11716521_a_at) / RFU C5orf56 (11738089_at) / Fold change /veh C5orf56 (11738089_at) / RFU CYB561 (11721691_x_at) / Fold change /veh CYB561 (11721691_x_at) / RFU ANKRD19P (11752326_a_at) / Fold change /veh ANKRD19P (11752326_a_at) / RFU OR2T12 /// OR2T33 /// OR2T8 (11738714_s_at) / Fold change /veh OR2T12 /// OR2T33 /// OR2T8 (11738714_s_at) / RFU VCAN (11748164_a_at) / Fold change /veh VCAN (11748164_a_at) / RFU JSRP1 (11732532_at) / Fold change /veh JSRP1 (11732532_at) / RFU KRTAP10-11 (11738290_x_at) / Fold change /veh KRTAP10-11 (11738290_x_at) / RFU MYO3A (11730013_a_at) / Fold change /veh MYO3A (11730013_a_at) / RFU EBF3 (11725865_a_at) / Fold change /veh EBF3 (11725865_a_at) / RFU CAMK2N1 (11719241_x_at) / Fold change /veh CAMK2N1 (11719241_x_at) / RFU C5orf56 (11738088_a_at) / Fold change /veh C5orf56 (11738088_a_at) / RFU OLFML3 (11715873_a_at) / Fold change /veh OLFML3 (11715873_a_at) / RFU LOC100653217 /// NTM (11731650_a_at) / Fold change /veh LOC100653217 /// NTM (11731650_a_at) / RFU MAPK11 (11762145_a_at) / Fold change /veh MAPK11 (11762145_a_at) / RFU FIZ1 (11724087_x_at) / Fold change /veh FIZ1 (11724087_x_at) / RFU OASL (11726364_x_at) / Fold change /veh OASL (11726364_x_at) / RFU SOX15 (11748057_x_at) / Fold change /veh SOX15 (11748057_x_at) / RFU CD79A (11719716_a_at) / Fold change /veh CD79A (11719716_a_at) / RFU HIST1H1D (11736915_at) / Fold change /veh HIST1H1D (11736915_at) / RFU CASKIN2 (11723855_a_at) / Fold change /veh CASKIN2 (11723855_a_at) / RFU LOC730098 (11760151_x_at) / Fold change /veh LOC730098 (11760151_x_at) / RFU OR4N2 (11742367_at) / Fold change /veh OR4N2 (11742367_at) / RFU PRRT2 (11749266_a_at) / Fold change /veh PRRT2 (11749266_a_at) / RFU SNX32 (11753110_a_at) / Fold change /veh SNX32 (11753110_a_at) / RFU CDHR5 (11726645_a_at) / Fold change /veh CDHR5 (11726645_a_at) / RFU RCAN1 (11760418_a_at) / Fold change /veh RCAN1 (11760418_a_at) / RFU FAM167A (11723789_a_at) / Fold change /veh FAM167A (11723789_a_at) / RFU FAM26E (11764081_at) / Fold change /veh FAM26E (11764081_at) / RFU ISYNA1 (11749810_s_at) / Fold change /veh ISYNA1 (11749810_s_at) / RFU ACY1 (11761880_at) / Fold change /veh ACY1 (11761880_at) / RFU 11764098_at / Fold change /veh 11764098_at / RFU SAMD14 (11745864_x_at) / Fold change /veh SAMD14 (11745864_x_at) / RFU NPB (11741838_a_at) / Fold change /veh NPB (11741838_a_at) / RFU TMPRSS6 (11731388_a_at) / Fold change /veh TMPRSS6 (11731388_a_at) / RFU KRTAP10-2 (11738614_at) / Fold change /veh KRTAP10-2 (11738614_at) / RFU ARHGAP8 /// PRR5-ARHGAP8 (11727945_x_at) / Fold change /veh ARHGAP8 /// PRR5-ARHGAP8 (11727945_x_at) / RFU KRTAP5-7 /// NADSYN1 (11734609_at) / Fold change /veh KRTAP5-7 /// NADSYN1 (11734609_at) / RFU RASL12 (11751679_a_at) / Fold change /veh RASL12 (11751679_a_at) / RFU CDKN2B (11736163_a_at) / Fold change /veh CDKN2B (11736163_a_at) / RFU PRF1 (11729649_at) / Fold change /veh PRF1 (11729649_at) / RFU, ZNF638 /// ZNF638-IT1 / Fold change vs veh, ZNF638 /// ZNF638-IT1 / RFU, PANK3 / Fold change vs veh, PANK3 / RFU, SH3YL1 / Fold change vs veh, SH3YL1 / RFU, ZEB2 / Fold change vs veh, ZEB2 / RFU, NRIP1 / Fold change vs veh, NRIP1 / RFU, PTTG1IP / Fold change vs veh, PTTG1IP / RFU, CAPN2 / Fold change vs veh, CAPN2 / RFU, MED14 / Fold change vs veh, MED14 / RFU, SNORA58 / Fold change vs veh, SNORA58 / RFU, C1orf63 / Fold change vs veh, C1orf63 / RFU, LRRFIP1 / Fold change vs veh, LRRFIP1 / RFU, NDUFAF7 / Fold change vs veh, NDUFAF7 / RFU, SLC12A2 / Fold change vs veh, SLC12A2 / RFU, IBTK / Fold change vs veh, IBTK / RFU, ESF1 / Fold change vs veh, ESF1 / Fold change vs veh, TMEM50B / RFU, TAOK1 / Fold change vs veh, TAOK1 / RFU, ACBD3 / Fold change vs veh, ACBD3 / RFU, TMA16 / Fold change vs veh, TMA16 / RFU, RWDD3 / Fold change vs veh, RWDD3 / RFU, BCAT1 / Fold change vs veh, BCAT1 / RFU, EDEM3 / Fold change vs veh, EDEM3 / RFU, TMEM33 / Fold change vs veh, TMEM33 / RFU, WDR75 / Fold change vs veh, WDR75 / RFU, AHCTF1 / Fold change vs veh, AHCTF1 / RFU, TFRC / Fold change vs veh, TFRC / RFU, ZDHHC17 / Fold change vs veh, ZDHHC17 / RFU, NOM1 / Fold change vs veh, NOM1 / RFU, ARL8B / Fold change vs veh, ARL8B / RFU, ZBTB11 / Fold change vs veh, ZBTB11 / RFU, TAMM41 / Fold change vs veh, TAMM41 / RFU, KIAA1704 /// LOC100996395 / Fold change vs veh, KIAA1704 /// LOC100996395 / RFU, ING1 / Fold change vs veh, ING1 / RFU, TRMT61B / Fold change vs veh, TRMT61B / RFU, FUBP3 / Fold change vs veh, FUBP3 / RFU, TP53 / Fold change vs veh, TP53 / RFU, TNKS2 / Fold change vs veh, TNKS2 / RFU, ZFP14 / Fold change vs veh, ZFP14 / RFU, ACTR2 / Fold change vs veh, ACTR2 / RFU, PPP3R1 / Fold change vs veh, PPP3R1 / RFU, PIK3R1 / Fold change vs veh, PIK3R1 / RFU, HNRNPA1 / Fold change vs veh, HNRNPA1 / RFU, RNF170 / Fold change vs veh, RNF170 / RFU, ZNF28 / Fold change vs veh, ZNF28 / RFU, RNGTT / Fold change vs veh, RNGTT / RFU, OGT / Fold change vs veh, OGT / RFU, BRD1 / Fold change vs veh, BRD1 / RFU, MARS / Fold change vs veh, MARS / RFU, ZNF655 / Fold change vs veh, ZNF655 / RFU, FAHD1 / Fold change vs veh, FAHD1 / RFU, BDP1 / Fold change vs veh, BDP1 / RFU, LRRCC1 / Fold change vs veh, LRRCC1 / RFU, ARID1A / Fold change vs veh, ARID1A / RFU, ZNF146 / Fold change vs veh, ZNF146 / RFU, ZNF330 / Fold change vs veh, ZNF330 / RFU, GPN3 / Fold change vs veh, GPN3 / RFU, C9orf123 / Fold change vs veh, C9orf123 / RFU, N4BP2L2 / Fold change vs veh, N4BP2L2 / RFU, ARFIP1 / Fold change vs veh, ARFIP1 / RFU, FAM179B / Fold change vs veh, FAM179B / RFU, BCL10 / Fold change vs veh, BCL10 / RFU, UHRF1BP1L / Fold change vs veh, UHRF1BP1L / RFU, BET1 / Fold change vs veh, BET1 / RFU, CNOT2 / Fold change vs veh, CNOT2 / RFU, ZNF268 / Fold change vs veh, ZNF268 / Fold change vs veh, ZNF507 / RFU, DGCR2 / Fold change vs veh, DGCR2 / RFU, WDSUB1 / Fold change vs veh, WDSUB1 / Fold change vs veh, HSP90B1 /// MIR3652 / RFU, ADSS / Fold change vs veh, ADSS / RFU, GK / Fold change vs veh, GK / RFU, ZNF148 / Fold change vs veh, ZNF148 / RFU, TAF9 / Fold change vs veh, TAF9 / RFU, SLC1A5 / Fold change vs veh, SLC1A5 / RFU, SLMO2 / Fold change vs veh, SLMO2 / RFU, ABCC4 / Fold change vs veh, ABCC4 / RFU, LOC101060439 /// RAP1B / Fold change vs veh, LOC101060439 /// RAP1B / RFU, RFX7 / Fold change vs veh, RFX7 / RFU, GTPBP10 / Fold change vs veh, GTPBP10 / RFU, CNEP1R1 / Fold change vs veh, CNEP1R1 / RFU, BIVM-ERCC5 /// ERCC5 / Fold change vs veh, BIVM-ERCC5 /// ERCC5 / RFU, ILF3 / Fold change vs veh, ILF3 / RFU 11762660_at / Fold change /veh 11762660_at / RFU VCAN (11757783_s_at) / Fold change /veh VCAN (11757783_s_at) / RFU DDX43 (11728927_at) / Fold change /veh DDX43 (11728927_at) / RFU KRT8 (11758188_x_at) / Fold change /veh KRT8 (11758188_x_at) / RFU NKD1 (11759106_at) / Fold change /veh NKD1 (11759106_at) / RFU SRD5A1 (11742802_a_at) / Fold change /veh SRD5A1 (11742802_a_at) / RFU TPSAB1 /// TPSB2 (11721975_s_at) / Fold change /veh TPSAB1 /// TPSB2 (11721975_s_at) / RFU GSTM3 (11746129_a_at) / Fold change /veh GSTM3 (11746129_a_at) / RFU IL23R (11737362_x_at) / Fold change /veh IL23R (11737362_x_at) / RFU TMEM51 (11727254_a_at) / Fold change /veh TMEM51 (11727254_a_at) / RFU PIWIL2 (11732686_x_at) / Fold change /veh PIWIL2 (11732686_x_at) / RFU ORM1 (11744905_x_at) / Fold change /veh ORM1 (11744905_x_at) / RFU CCDC152 (11743942_at) / Fold change /veh CCDC152 (11743942_at) / RFU ECM1 (11717891_a_at) / Fold change /veh ECM1 (11717891_a_at) / RFU IL23R (11748794_a_at) / Fold change /veh IL23R (11748794_a_at) / RFU TNFAIP8L3 (11732012_x_at) / Fold change /veh TNFAIP8L3 (11732012_x_at) / RFU MBOAT4 (11741988_at) / Fold change /veh MBOAT4 (11741988_at) / RFU 11764193_at / Fold change /veh 11764193_at / RFU TMEM53 (11763286_at) / Fold change /veh TMEM53 (11763286_at) / RFU MAGEB2 (11727129_at) / Fold change /veh MAGEB2 (11727129_at) / RFU TMEM200A (11744735_a_at) / Fold change /veh TMEM200A (11744735_a_at) / RFU CCDC152 (11751479_a_at) / Fold change /veh CCDC152 (11751479_a_at) / RFU FAM211A (11726209_a_at) / Fold change /veh FAM211A (11726209_a_at) / RFU RGS16 (11746705_a_at) / Fold change /veh RGS16 (11746705_a_at) / RFU VCAN (11755009_s_at) / Fold change /veh VCAN (11755009_s_at) / RFU RHOB (11743442_s_at) / Fold change /veh RHOB (11743442_s_at) / RFU RGS16 (11720943_a_at) / Fold change /veh RGS16 (11720943_a_at) / RFU RGS16 (11720944_at) / Fold change /veh RGS16 (11720944_at) / RFU, VPS4B / Fold change vs veh, VPS4B / RFU, CREB1 / Fold change vs veh, CREB1 / RFU, DNAJC13 / Fold change vs veh, DNAJC13 / RFU, GNAQ / Fold change vs veh, GNAQ / RFU, CDK5R1 / Fold change vs veh, CDK5R1 / RFU, ZRANB3 / Fold change vs veh, ZRANB3 / RFU, CUL4A / Fold change vs veh, CUL4A / RFU, CCNY / Fold change vs veh, CCNY / RFU, UFL1 / Fold change vs veh, UFL1 / RFU, COG3 / Fold change vs veh, COG3 / RFU, DIAPH2 / Fold change vs veh, DIAPH2 / RFU, SKA2 / Fold change vs veh, SKA2 / RFU, AFF3 / Fold change vs veh, AFF3 / RFU, LMF1 / Fold change vs veh, LMF1 / RFU, IPO11 / Fold change vs veh, IPO11 / RFU, DFFB / Fold change vs veh, DFFB / RFU, FOXP1 / Fold change vs veh, FOXP1 / RFU, CARD8 / Fold change vs veh, CARD8 / RFU, STRN3 / Fold change vs veh, STRN3 / RFU, ADK / Fold change vs veh, ADK / RFU, RASSF2 / Fold change vs veh, RASSF2 / RFU, WIPF1 / Fold change vs veh, WIPF1 / RFU, LARP1B / Fold change vs veh, LARP1B / RFU, RASA1 / Fold change vs veh, RASA1 / RFU, RB1 / Fold change vs veh, RB1 / RFU, PPFIA1 / Fold change vs veh, PPFIA1 / RFU, MAT2A / Fold change vs veh, MAT2A / RFU, CCT5 / Fold change vs veh, CCT5 / RFU, WDR92 / Fold change vs veh, WDR92 / RFU, CUX1 / Fold change vs veh, CUX1 / RFU, TTC7A / Fold change vs veh, TTC7A / RFU, TMEM135 / Fold change vs veh, TMEM135 / RFU, DEPTOR / Fold change vs veh, DEPTOR / RFU, CPM / Fold change vs veh, CPM / RFU, DNAJB6 / Fold change vs veh, DNAJB6 / RFU, CACNA2D3 / Fold change vs veh, CACNA2D3 / RFU, DTX4 / Fold change vs veh, DTX4 / RFU, TFCP2 / Fold change vs veh, TFCP2 / RFU, GMCL1 /// GMCL1P1 / Fold change vs veh, GMCL1 /// GMCL1P1 / RFU, AEBP2 / Fold change vs veh, AEBP2 / RFU, SNHG1 /// SNORD22 /// SNORD25 /// SNORD26 /// SNORD27 /// SNORD28 /// SNORD29 /// SNORD31 / Fold change vs veh, SNHG1 /// SNORD22 /// SNORD25 /// SNORD26 /// SNORD27 /// SNORD28 /// SNORD29 /// SNORD31 / Fold change (Aza/veh), C12orf56 (ProbeSet 11735607_a_at) / Fold change (ACY-1035/veh), C12orf56 (ProbeSet 11735607_a_at) / Fold change (Aza/veh), FGFR1OP (ProbeSet 11751329_s_at) / Fold change (ACY-1035/veh), FGFR1OP (ProbeSet 11751329_s_at) / Fold change (Aza/veh), VPS36 (ProbeSet 11739960_a_at) / Fold change (ACY-1035/veh), VPS36 (ProbeSet 11739960_a_at) / RFU SYPL1 (11715823_x_at) / Fold change /veh SYPL1 (11715823_x_at) / RFU IGFBP7 (11715501_s_at) / Fold change /veh IGFBP7 (11715501_s_at) / RFU REEP3 (11722064_at) / Fold change /veh REEP3 (11722064_at) / RFU IGLL1 (11728026_x_at) / Fold change /veh IGLL1 (11728026_x_at): dose or concentration left out as unconfirmed",
  "conditions": "ProbeSet 11731461_x_at; LIST D",
  "data": [
    {"smiles": "Nc1ncn([C@@H]2O[C@H](CO)[C@@H](O)[C@H]2O)c(=O)n1", "note": "[azacitidine]", "values": [
      {"measurement": "RFU, CPM", "value": 125.18, "unit": "RFU"}
    ]}
  ]
}
